# From patent US4123534A, “Adenine derivatives and hypolipidemic composition thereof” (Wulfing; Johann W., priority 1976, dated 1978)
# Where two headings read alike, the source gives them in different places.
# Columns and labels:
# [1] = fall in serum triglyceride levels in male rats, 1 mg/kg per os; format: in vivo; conditions: 3-methylpyrazole-5-carboxylic acid addition salts
# Procedure: When administered to male rats the 3-methylpyrazole-5-carboxylic acid addition salts of the compound of the formula (IV) wherein R2 is respectively a methyl, ethyl, isopropyl and n-butyl at a dose of 1 mg/kg per os produced a fall in serum triglyceride levels of about 23%, 34%, 34% and 56% respectively.
# [2] = different animal species and man; cited from earlier work
# [3] = acute toxicity (LD50) in mice; format: in vivo; conditions: for LD50: mouse, in vivo, mice
# [4] = oral test in normal rats starved for 17 hours: serum lipid lowering; format: in vivo; conditions: rats starved 17 hours
# Procedure: Similarly, a reduction in serum free fatty acid concentration of about 40-50% was produced over the dose range 0.15 mg/kg to 5 mg/kg.
smiles,measurement,setting,value
CCN(CCO)CC(O)Cn1cnc2c(N)ncnc21 (centres unmarked),fall in serum triglyceride levels,[1],~34%
CCCCN(CCO)CC(O)Cn1cnc2c(N)ncnc21 (centres unmarked),fall in serum triglyceride levels,[1],~56%
Nc1ncnc2c1ncn2C[C@@H](O)[C@@H](O)C(=O)O [lentinacin],"lowering of lipid components of plasma lipoproteins (cholesterol, triglycerides and phospholipids)",[2],lowers all lipid components of the plasma - lipoproteins
"CN(CCO)CC(O)Cn1cnc2c(N)ncnc21 (stereo not drawn) [Example 1 (9-isomer), 6-Amino-9-[2-hydroxy-3-(N-methyl-N-2-hydroxyethyl)aminopropyl]purine]",acute toxicity,[3]; in words,low acute toxicity
same,LD50,"[3]; iv, intra-venous, read-out: LD50 by intra-venous administration",~350 mg/kg
same,LD50,"[3]; oral, read-out: LD50 by oral administration",~1000 mg/kg
"CN(CCO)CC(O)Cn1cnc2c(N)ncnc21 (centres unmarked) [Example 2, 6-Amino-9-[2-hydroxy-3-(N-methyl-N-2-hydroxyethyl)aminopropyl]purine3-methylpyrazole-5-carboxylate]",reduction in serum triglyceride levels,"[4]; 1 hour post administration, dose range 0.25 mg/kg to 25 mg/kg",30-40%
same,reduction in serum cholesterol levels,[4]; dose of 100 mg/kg,about 30%
same,reduction in serum free fatty acid concentration,[4]; dose range 0.15 mg/kg to 5 mg/kg,40-50%
same,fall in serum triglyceride levels,[1],about 23%
CC(C)N(CCO)CC(O)Cn1cnc2c(N)ncnc21 (centres unmarked),fall in serum triglyceride levels,[1],~34%
